One may read the IC50 as the concentration needed to halve the response being measured. A low value points to greater potency. One may read the inhibition as how much of the control response was suppressed. The low end stands for a response near the control, the high end for a response far below the control.

The record followed here is ChEMBL document CHEMBL2150850, “Recent advances in the development of selective human MAO-B inhibitors: (hetero)arylidene-(4-substituted-thiazol-2-yl)hydrazines” (Eur J Med Chem, 2012).

The species entered for one data set is Homo sapiens. Put plainly: Selectivity ratio of IC50 for human MAO-A to IC50 for human MAO-B.
Data set [1] deals with T1, Amine oxidase [flavin-containing] B (Homo sapiens, UniProt P27338).
T1 sequence (P27338 whole entry): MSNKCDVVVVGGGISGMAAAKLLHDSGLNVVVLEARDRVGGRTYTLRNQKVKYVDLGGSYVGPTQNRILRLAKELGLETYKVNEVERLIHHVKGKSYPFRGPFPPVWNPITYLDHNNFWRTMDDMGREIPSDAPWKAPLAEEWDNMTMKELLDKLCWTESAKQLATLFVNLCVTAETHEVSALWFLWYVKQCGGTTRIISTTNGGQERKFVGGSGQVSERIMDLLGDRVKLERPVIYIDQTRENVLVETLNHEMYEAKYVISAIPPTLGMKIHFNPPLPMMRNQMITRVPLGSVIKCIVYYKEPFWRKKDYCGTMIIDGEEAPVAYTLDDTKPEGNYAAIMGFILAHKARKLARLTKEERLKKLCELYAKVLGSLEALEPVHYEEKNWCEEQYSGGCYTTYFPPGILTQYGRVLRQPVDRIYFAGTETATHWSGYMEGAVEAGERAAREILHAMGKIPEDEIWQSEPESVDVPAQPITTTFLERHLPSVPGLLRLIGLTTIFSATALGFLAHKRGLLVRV
The experiment in a line: biochemical. It counts as cell-based, BTI-TN-5B1-4.
Description: Inhibition of human MAO-B expressed in baculovirus infected BTI-TN-5B1-4 cells using p-tyramine as substrate incubated for 15 mins prior to substrate addition measured for 15 mins by Amplex red assay

Data set [2] concerns the target T2, Amine oxidase [flavin-containing] A (Homo sapiens, UniProt P21397).
T2 sequence (P21397 whole entry): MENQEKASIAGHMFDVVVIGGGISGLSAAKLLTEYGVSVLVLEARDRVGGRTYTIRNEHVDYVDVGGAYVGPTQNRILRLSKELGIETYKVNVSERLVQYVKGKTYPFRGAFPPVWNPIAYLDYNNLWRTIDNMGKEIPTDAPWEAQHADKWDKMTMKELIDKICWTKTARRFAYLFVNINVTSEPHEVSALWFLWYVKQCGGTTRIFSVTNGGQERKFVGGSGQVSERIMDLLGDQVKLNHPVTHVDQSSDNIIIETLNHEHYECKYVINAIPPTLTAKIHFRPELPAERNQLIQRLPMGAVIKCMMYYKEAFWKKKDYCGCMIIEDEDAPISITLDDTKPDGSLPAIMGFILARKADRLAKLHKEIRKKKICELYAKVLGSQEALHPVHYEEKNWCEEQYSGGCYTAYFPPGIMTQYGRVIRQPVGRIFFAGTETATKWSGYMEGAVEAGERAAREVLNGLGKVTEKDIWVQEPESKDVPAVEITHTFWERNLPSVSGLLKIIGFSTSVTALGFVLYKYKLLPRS
Put plainly: Inhibition of human MAO-A expressed in baculovirus infected BTI-TN-5B1-4 cells using p-tyramine as substrate at 100 uM incubated for 15 mins prior to substrate addition measured for 15 mins by Amplex red assay. Conditions: for inhibition at 100 µM: BTI-TN-5B1-4, human, 0.25 h; for inhibition (INH): human, bti-tn-5b1-4, 0.25 h, 100 µM; call rule not given here.

Data set [3] has as its target T1, Amine oxidase [flavin-containing] B. The experiment in a line: Inhibition of human MAO-B expressed in baculovirus infected BTI-TN-5B1-4 cells using p-tyramine as substrate at 100 uM incubated for 15 mins prior to substrate addition measured for 15 mins by Amplex red assay. Conditions: for inhibition (INH): human, bti-tn-5b1-4, 0.25 h, 100 µM; for inhibition at 100 µM: BTI-TN-5B1-4, human, 0.25 h.

Take `Fc1ccc(-c2csc(N/N=C\c3cccs3)n2)cc1`: the Ratio IC50 in the data set listed under Homo sapiens was greater than 295. The IC50 in data set [1] is 338 nM. Further, the inhibition at 100 µM in data set [2] is 40%.
The like results for `N#Cc1ccc(-c2csc(N/N=C\c3ccc4c(c3)OCO4)n2)cc1` were, in that order, greater than 332, 301 nM and 40%.
Take `O=[N+]([O-])c1ccc(-c2csc(N/N=C\c3ccncc3)n2)cc1`: the “inhibition (INH)” value in data set [3] and in data set [2] was “Not Active” each time.
Regarding `O=[N+]([O-])c1ccc(-c2csc(N/N=C\c3cccc4ccccc34)n2)cc1`, the “inhibition (INH)” value in data set [3] and in data set [2] was “Not Active” in each case.
On to `Fc1ccc(-c2csc(N/N=C\c3ccncc3)n2)c(F)c1`, for which, in the data set listed under Homo sapiens, the Ratio IC50 is greater than 182. This compound showed an IC50 in data set [1] of 549 nM. For the same compound, in data set [2], the “inhibition (INH)” value is given as “Not Active”.
On to `C/C(=N/Nc1nc(-c2ccc(C#N)cc2)cs1)c1cc2ccccc2oc1=O`, for which the “inhibition (INH)” value in data set [3] and in data set [2] was “Not Active” each time.
Regarding `O=[N+]([O-])c1ccc(-c2csc(N/N=C\c3ccc4c(c3)OCO4)n2)cc1`, the “inhibition (INH)” value in data set [3] and in data set [2] was “Not Active” throughout.
Consider `C/C(=N/Nc1nc(-c2ccc(C#N)cc2)cs1)c1cccnc1`, for which, in the data set filed under Homo sapiens, the Ratio IC50 is greater than 47800. The same compound displayed an IC50 in data set [1] of 2.09 nM. For the same compound, the inhibition at 100 µM in data set [2] was found to be 40%.
As to `N#Cc1ccc(-c2csc(N/N=C\c3cccc4ccccc34)n2)cc1`, the Ratio IC50 in the data set filed under Homo sapiens is greater than 91. In addition, the IC50 in data set [1] was 1100 nM. This compound came in with an inhibition at 100 µM in data set [2] of 40%.
Take `O=[N+]([O-])c1ccc(-c2csc(N/N=C\c3c[nH]c4ccccc34)n2)cc1`: the “inhibition (INH)” value in data set [3] and in data set [2] was “Not Active” throughout.
As for `C/C(=N/Nc1nc(-c2ccc([N+](=O)[O-])cc2)cs1)c1cc2ccccc2oc1=O`, the “inhibition (INH)” value in data set [3] and in data set [2] was “Not Active” throughout.
Regarding `O=C(NCCN1CCOCC1)c1ccc(Cl)cc1` [MOCLOBEMIDE], the “inhibition (INH)” value in data set [3] is “Not Active”.
Consider `C/C(=N/Nc1nc(-c2ccc(F)cc2)cs1)c1cccs1`, for which, in the data set listed under Homo sapiens, the Ratio IC50 is greater than 6460. This compound also gave an IC50 in data set [1] of 15.5 nM. Moreover, the inhibition at 100 µM in data set [2] was 40%.
`Fc1ccc(-c2csc(N/N=C\c3ccco3)n2)cc1`: the Ratio IC50 in the data set listed under Homo sapiens was greater than 153. Half-maximal inhibition in data set [1] (IC50) required 653 nM. In addition, in data set [2], testing at 100 µM gave an inhibition of 40%.
For `C/C(=N/Nc1nc(-c2ccc([N+](=O)[O-])cc2)cs1)c1cccs1`, 298 nM corresponded to half-maximal inhibition in data set [1] (IC50). In data set [2], the “inhibition (INH)” value is listed as “Not Active”.
For the compound `C/C(=N/Nc1nc(-c2ccc(F)cc2F)cs1)c1cc2ccccc2oc1=O`, in the data set filed under Homo sapiens, the Ratio IC50 was greater than 70. For the same compound, the IC50 in data set [1] was 1420 nM. Also, the “inhibition (INH)” value in data set [2] was “Not Active”.
The compound `C/C(=N/Nc1nc(-c2ccc(C#N)cc2)cs1)c1ccc2ccccc2c1` gave an inhibition at 100 µM in data set [3] of 40%. In addition, the “inhibition (INH)” value in data set [2] is recorded as “Not Active”.
Regarding `N#Cc1ccc(-c2csc(N/N=C\c3cccnc3)n2)cc1`, the Ratio IC50 in the data set filed under Homo sapiens is greater than 106. In data set [1], this compound had an IC50 of 947 nM. This compound displayed an inhibition at 100 µM in data set [2] of 40%.
The like results for `Fc1ccc(-c2csc(N/N=C\c3ccc4c(c3)OCO4)n2)cc1` were, in that order, greater than 93, 1080 nM and 40%.
`C/C(=N/Nc1nc(-c2ccc([N+](=O)[O-])cc2)cs1)c1ccco1` showed an IC50 in data set [1] of 3590 nM. Further, in data set [2], the inhibition at 100 µM came out at 40%.
In the case of `C/C(=N/Nc1nc(-c2ccc(C#N)cc2)cs1)c1ccccc1`, the inhibition at 100 µM in data set [3] and in data set [2] was 40% each time.
The compound `C/C(=N/Nc1nc(-c2ccc(F)cc2F)cs1)c1ccc2ccccc2c1` showed an inhibition at 100 µM in data set [3] of 40%. In data set [2], the “inhibition (INH)” value is “Not Active”.
Consider `C/C(=N/Nc1nc(-c2ccc(C#N)cc2)cs1)c1cccs1`, for which, in the data set listed under Homo sapiens, the Ratio IC50 is greater than 32. In data set [1], this compound returned an IC50 of 3110 nM. Moreover, the inhibition at 100 µM in data set [2] is 40%.
The like results for `Fc1ccc(-c2csc(N/N=C\c3ccncc3)n2)cc1` were, in that order, greater than 890, 112 nM and 40%.
As for `C/C(=N/Nc1nc(-c2ccc(F)cc2)cs1)c1cc2ccccc2oc1=O`, the “inhibition (INH)” value in data set [3] and in data set [2] was “Not Active” in each case.
`Fc1ccc(-c2csc(N/N=C\c3cccnc3)n2)c(F)c1`: the Ratio IC50 in the data set listed under Homo sapiens is greater than 504. The same compound returned an IC50 in data set [1] of 199 nM. Moreover, at 100 µM the inhibition in data set [2] was 40%.
For `C/C(=N/Nc1nc(-c2ccc(C#N)cc2)cs1)c1ccco1`, the inhibition at 100 µM in data set [3] and in data set [2] was 40% in each case.
For the compound `O=[N+]([O-])c1ccc(-c2csc(N/N=C\c3cccs3)n2)cc1`, the inhibition at 100 µM in data set [3] and in data set [2] was 40% each time.
With `N#Cc1ccc(-c2csc(N/N=C\c3ccco3)n2)cc1`, the Ratio IC50 in the data set listed under Homo sapiens was greater than 67. The compound also returned an IC50 in data set [1] of 1490 nM. Moreover, 100 µM produced 40% inhibition in data set [2].
The like results for `C/C(=N/Nc1nc(-c2ccc(F)cc2F)cs1)c1ccco1` were, in that order, greater than 2490, 40.1 nM and 40%.
Regarding `Fc1ccc(-c2csc(N/N=C\c3c[nH]c4ccccc34)n2)cc1`, the Ratio IC50 in the data set listed under Homo sapiens is greater than 173. Besides, in data set [1], it took 578 nM to reach half-maximal inhibition (IC50). This compound also had an inhibition at 100 µM in data set [2] of 40%.
The like results for `Fc1ccc(-c2csc(N/N=C\c3cccs3)n2)c(F)c1` were, in that order, greater than 6030, 16.6 nM and 40%.
In the case of `O=[N+]([O-])c1ccc(-c2csc(N/N=C\c3cccnc3)n2)cc1`, the “inhibition (INH)” value in data set [3] and in data set [2] was “Not Active” throughout.
In the case of `Fc1ccc(-c2csc(N/N=C\c3cccc4ccccc34)n2)cc1`, the Ratio IC50 in the data set listed under Homo sapiens is greater than 7.8. In data set [1], this compound displayed an IC50 of 12800 nM. Further, in data set [2], the inhibition at 100 µM is 40%.
The like results for `Fc1ccc(-c2csc(N/N=C\c3cccnc3)n2)cc1` were, in that order, greater than 207, 482 nM and 40%.
As to `C/C(=N/Nc1nc(-c2ccc(F)cc2F)cs1)c1cccs1`, the Ratio IC50 in the data set filed under Homo sapiens was greater than 33200. Besides, half-maximal inhibition in data set [1] (IC50) was put at 3.01 nM. In data set [2], the inhibition at 100 µM worked out at 40%.
The like results for `C/C(=N/Nc1nc(-c2ccc(F)cc2F)cs1)c1ccncc1` were, in that order, greater than 5990, 16.7 nM and 40%.
The like results for `C/C(=N/Nc1nc(-c2ccc(F)cc2F)cs1)c1cccnc1` were, in that order, greater than 5430, 18.4 nM and 40%.
With `C/C(=N/Nc1nc(-c2ccc([N+](=O)[O-])cc2)cs1)c1cccnc1`, the “inhibition (INH)” value in data set [3] and in data set [2] was “Not Active” each time.
With `Fc1ccc(-c2csc(N/N=C\c3cccc4ccccc34)n2)c(F)c1`, the Ratio IC50 in the data set filed under Homo sapiens is greater than 727. The compound also gave an IC50 in data set [1] of 138 nM. For the same compound, the inhibition at 100 µM in data set [2] is 40%.
The like results for `Fc1ccc(-c2csc(N/N=C\c3ccc4c(c3)OCO4)n2)c(F)c1` were, in that order, greater than 85, 1170 nM and 40%.
`O=[N+]([O-])c1ccc(-c2csc(N/N=C\c3ccco3)n2)cc1`: the inhibition at 100 µM in data set [3] and in data set [2] was 40% throughout.
Take `C/C(=N/Nc1nc(-c2ccc(F)cc2)cs1)c1ccncc1`: in the data set listed under Homo sapiens, the Ratio IC50 is greater than 39400. For the same compound, the IC50 in data set [1] is 2.54 nM. Moreover, at 100 µM the inhibition in data set [2] was 40%.
In the case of `N#Cc1ccc(-c2csc(N/N=C\c3c[nH]c4ccccc34)n2)cc1`, the Ratio IC50 in the data set filed under Homo sapiens is greater than 131. This compound also registered an IC50 in data set [1] of 762 nM. The “inhibition (INH)” value in data set [2] is on record as “Not Active”.
The like results for `C/C(=N/Nc1nc(-c2ccc([N+](=O)[O-])cc2)cs1)c1ccncc1` were, in that order, greater than 7620, 13.1 nM and “Not Active”.
For the compound `C/C(=N/Nc1nc(-c2ccc([N+](=O)[O-])cc2)cs1)c1ccccc1`, the inhibition at 100 µM in data set [3] and in data set [2] was 40% throughout.
